Values of other authors, collected in patent US9827328B2, “Combination therapy for treatment of cancer” (UNIVERSITY OF SOUTH ALABAMA, priority 2011, dated 2017).
Read-outs that look alike come from different tables or passages of the source.

Columns and labels:
[1] = test system: patients with metastatic breast cancer
[2] = test system: patients with advanced or metastatic breast cancer; settings: weekly nab-paclitaxel v every-three week Taxotere

Row | number of patients with persistent grade 3 sensory neuropathy ([1]; by day 28 after first occurrence) | episodes of motor neuropathy or grade 4 sensory neuropathy ([1]; in vivo) | mean neutrophil nadir ([1]; in vivo) | treatment-related grade 3 sensory neuropathy ([1]; in vivo) | rate of grade 4 neutropenia [2] | SMILES | incidence of hyperglycemia reported as adverse effect ([1]; all patients) | median survival ([1]; all patients) | median time to tumor progression (TTP) ([1]; all patients) | overall response rate (ORR) ([1]; all patients, ITT) | incidence of treatment-related grade 4 neutropenia ([1]; in vivo) | severe (grade 3 or 4) treatment-related hypersensitivity reactions ([1]; nab-paclitaxel without premedication, Taxol with standard premedication) | tumor response rate ([1]; patients aged younger than 65 years) | ORR ([1]; patients who received first-line therapy) | ORR ([1]; patients with nonvisceral dominant lesions) | tumor response rate ([1]; patients with visceral dominant lesions) | ORR ([1]; patients ≧65 years old) | ORR ([1]; prior anthracycline therapy, adjuvant/metastatic setting) | ORR ([1]; prior anthracycline therapy, metastatic setting only) | ORR ([1]; second-line or greater therapy) | median survival ([1]; second-line or greater therapy)
1 | 4 | No episodes | 1.31e+09 L⁻¹ | 2% | – | CC(=O)O[C@H]1C(=O)[C@@]2(C)[C@H]([C@H](OC(=O)c3ccccc3)[C@]3(O)C[C@H](OC(=O)[C@H](O)[C@@H](NC(=O)c4ccccc4)c4ccccc4)C(C)=C1C3(C)C)[C@]1(OC(C)=O)CO[C@@H]1C[C@@H]2O [Taxol, paclitaxel] | 7% | 55.7 weeks | 16.9 weeks | 19% | 22% | grade 3 hypersensitivity reactions occurred | 19% | 27% | 19% | 19% | 19% | 18% | 14% | 13% | 46.7 weeks
2 | – | – | – | – | 75% | CC(=O)O[C@@]12CO[C@@H]1C[C@H](O)[C@@]1(C)C(=O)[C@H](O)C3=C(C)[C@@H](OC(=O)[C@H](O)[C@@H](NC(=O)OC(C)(C)C)c4ccccc4)C[C@@](O)([C@@H](OC(=O)c4ccccc4)[C@H]21)C3(C)C [Taxotere, docetaxel] | – | – | – | – | – | – | – | – | – | – | – | – | – | – | –
